Experimental data taken from ChEMBL document CHEMBL1201862, “PubChem BioAssay data set” (2004).
Activity calls are given as the source filed them.

Legend:
Cytochrome P450 3A4 = Cytochrome P450 3A4 (Homo sapiens, UniProt P08684);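 note: CYP3A4 tested as one member of a cytochrome P450 panel screen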
Cytochrome P450 2D6 = Cytochrome P450 2D6 (Homo sapiens, UniProt P10635);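 note: CYP2D6 member of a cytochrome P450 panel assay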
[1] = biological target: T1, Oxysterols receptor LXR-beta (Homo sapiens, UniProt P55055); type: functional, cell-based;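 note: agonist activity at LXR measured by a cell-based luminescence readout across a dose range, run as a counterscreen for daf-12 agonists; HEK293 cells with Gal4-LXR fusion and GAL4-driven luciferase reporter; potency for activation of Gal4-LXR reporter so compounds are agonists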
T1 sequence (P55055 whole entry): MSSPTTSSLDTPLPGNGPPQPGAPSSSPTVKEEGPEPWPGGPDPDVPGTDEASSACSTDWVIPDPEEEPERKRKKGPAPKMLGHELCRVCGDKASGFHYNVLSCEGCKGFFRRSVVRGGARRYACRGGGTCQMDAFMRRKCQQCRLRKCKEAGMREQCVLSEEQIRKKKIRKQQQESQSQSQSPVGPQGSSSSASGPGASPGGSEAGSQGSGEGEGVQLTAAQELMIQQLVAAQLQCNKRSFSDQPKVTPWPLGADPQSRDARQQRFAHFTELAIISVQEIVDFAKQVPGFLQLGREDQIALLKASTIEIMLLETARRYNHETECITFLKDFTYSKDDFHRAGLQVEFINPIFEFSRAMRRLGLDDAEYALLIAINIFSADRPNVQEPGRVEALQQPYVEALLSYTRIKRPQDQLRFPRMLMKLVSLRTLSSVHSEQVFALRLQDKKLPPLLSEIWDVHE

Caspase-3 = biological target: T2, Caspase-3 (Homo sapiens, UniProt P42574); type: functional;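 note: Dose-response selectivity test against caspase-3 for candidate inhibitors of sentrin-specific proteases (SENPs)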
T2 sequence (P42574 whole entry): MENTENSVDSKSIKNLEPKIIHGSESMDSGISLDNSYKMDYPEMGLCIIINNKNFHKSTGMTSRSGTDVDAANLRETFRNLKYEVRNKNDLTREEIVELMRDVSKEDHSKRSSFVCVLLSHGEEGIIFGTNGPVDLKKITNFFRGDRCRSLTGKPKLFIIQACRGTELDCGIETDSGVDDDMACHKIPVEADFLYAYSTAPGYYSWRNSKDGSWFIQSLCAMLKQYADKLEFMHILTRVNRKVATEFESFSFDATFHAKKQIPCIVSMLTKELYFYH

[2] = biological target: T3, Sentrin-specific protease 6 (Homo sapiens, UniProt Q9GZR1); type: functional;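 note: Luminescence-based dose-response confirmatory assay of SENP6 inhibition, following up an ultra-high-throughput screen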
T3 sequence (Q9GZR1 whole entry): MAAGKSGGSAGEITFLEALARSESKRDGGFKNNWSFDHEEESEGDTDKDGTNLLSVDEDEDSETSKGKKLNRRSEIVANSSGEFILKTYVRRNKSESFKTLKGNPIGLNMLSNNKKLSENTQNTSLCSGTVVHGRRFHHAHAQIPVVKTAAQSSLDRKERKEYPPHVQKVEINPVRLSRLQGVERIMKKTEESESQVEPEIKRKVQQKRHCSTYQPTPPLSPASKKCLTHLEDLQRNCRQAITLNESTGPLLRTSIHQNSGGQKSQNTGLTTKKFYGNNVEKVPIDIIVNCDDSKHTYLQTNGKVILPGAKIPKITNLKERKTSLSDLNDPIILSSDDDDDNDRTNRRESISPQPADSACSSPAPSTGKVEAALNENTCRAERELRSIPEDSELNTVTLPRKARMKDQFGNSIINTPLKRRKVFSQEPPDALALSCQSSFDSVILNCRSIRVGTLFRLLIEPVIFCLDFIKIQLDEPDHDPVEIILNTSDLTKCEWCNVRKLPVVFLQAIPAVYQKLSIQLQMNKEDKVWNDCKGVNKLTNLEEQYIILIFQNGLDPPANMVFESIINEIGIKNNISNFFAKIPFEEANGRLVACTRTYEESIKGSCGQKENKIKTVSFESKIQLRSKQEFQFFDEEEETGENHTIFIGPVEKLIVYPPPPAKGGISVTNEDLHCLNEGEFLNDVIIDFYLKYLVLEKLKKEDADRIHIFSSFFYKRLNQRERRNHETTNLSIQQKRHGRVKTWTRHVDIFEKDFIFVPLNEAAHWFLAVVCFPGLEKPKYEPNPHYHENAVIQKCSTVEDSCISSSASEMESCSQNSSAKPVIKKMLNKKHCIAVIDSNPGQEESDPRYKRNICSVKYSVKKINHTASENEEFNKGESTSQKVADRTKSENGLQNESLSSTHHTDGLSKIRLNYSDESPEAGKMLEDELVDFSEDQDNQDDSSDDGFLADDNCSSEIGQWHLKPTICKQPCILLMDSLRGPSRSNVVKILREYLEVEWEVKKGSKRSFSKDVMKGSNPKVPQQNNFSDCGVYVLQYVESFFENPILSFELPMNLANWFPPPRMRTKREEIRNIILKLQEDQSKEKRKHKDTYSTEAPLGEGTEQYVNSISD

[3] = biological target: T4, Sentrin-specific protease 7 (Homo sapiens, UniProt Q9BQF6); type: functional;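 note: Luminescence-based dose-response confirmation of ultra-high-throughput screening hits, measuring inhibition of SENP7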
T4 sequence (Q9BQF6 whole entry): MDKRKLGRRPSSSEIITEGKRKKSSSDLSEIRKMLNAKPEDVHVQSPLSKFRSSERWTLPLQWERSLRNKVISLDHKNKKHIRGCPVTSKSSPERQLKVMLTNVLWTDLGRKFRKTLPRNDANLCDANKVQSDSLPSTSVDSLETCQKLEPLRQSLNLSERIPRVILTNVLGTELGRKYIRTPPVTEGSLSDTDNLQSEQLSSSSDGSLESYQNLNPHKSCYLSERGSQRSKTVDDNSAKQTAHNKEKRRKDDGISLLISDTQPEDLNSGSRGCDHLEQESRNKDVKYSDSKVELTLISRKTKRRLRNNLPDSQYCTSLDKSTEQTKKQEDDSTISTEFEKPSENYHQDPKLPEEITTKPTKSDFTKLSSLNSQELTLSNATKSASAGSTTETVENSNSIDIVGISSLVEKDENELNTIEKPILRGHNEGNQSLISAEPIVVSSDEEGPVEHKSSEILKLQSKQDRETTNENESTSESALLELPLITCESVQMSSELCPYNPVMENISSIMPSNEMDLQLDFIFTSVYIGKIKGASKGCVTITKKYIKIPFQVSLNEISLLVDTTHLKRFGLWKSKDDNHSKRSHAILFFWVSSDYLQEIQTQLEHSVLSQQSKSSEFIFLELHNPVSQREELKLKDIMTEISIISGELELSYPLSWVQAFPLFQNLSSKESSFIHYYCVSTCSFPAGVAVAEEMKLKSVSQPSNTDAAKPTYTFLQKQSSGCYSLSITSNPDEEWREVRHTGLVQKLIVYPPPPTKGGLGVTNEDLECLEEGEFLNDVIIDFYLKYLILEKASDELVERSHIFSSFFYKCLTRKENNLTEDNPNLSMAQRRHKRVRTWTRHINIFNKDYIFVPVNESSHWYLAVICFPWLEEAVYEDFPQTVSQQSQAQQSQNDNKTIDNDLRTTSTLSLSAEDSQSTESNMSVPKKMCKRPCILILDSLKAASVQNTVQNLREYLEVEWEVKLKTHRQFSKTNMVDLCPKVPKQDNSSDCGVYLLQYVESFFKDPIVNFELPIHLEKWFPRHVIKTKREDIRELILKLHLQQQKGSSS

[4] = biological target: T5, Sentrin-specific protease 8 (Homo sapiens, UniProt Q96LD8); type: functional;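 note: luminescence read-out of SENP8 inhibition, dose-response confirmation following an ultra-high-throughput screen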
T5 sequence (Q96LD8 whole entry): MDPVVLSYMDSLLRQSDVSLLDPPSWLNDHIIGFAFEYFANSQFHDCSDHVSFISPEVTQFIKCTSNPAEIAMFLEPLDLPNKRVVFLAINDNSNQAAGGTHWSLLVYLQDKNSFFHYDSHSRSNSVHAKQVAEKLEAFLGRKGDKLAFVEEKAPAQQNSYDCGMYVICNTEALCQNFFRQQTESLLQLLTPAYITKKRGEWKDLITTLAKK

[5] = biological target: T6, Endoribonuclease toxin MazF (Escherichia coli K-12, UniProt P0AE70); assay: substrate-only fluorescence increase artefacts – biochemical, single-stranded RNase substrate, counter-screen for MazEF activator project, dose response (AID 588502); type: functional
T6 sequence (P0AE70 whole entry): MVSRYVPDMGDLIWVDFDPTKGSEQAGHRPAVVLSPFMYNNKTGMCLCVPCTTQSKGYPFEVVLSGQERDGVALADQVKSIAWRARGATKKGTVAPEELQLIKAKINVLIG

[6] = biological target: T6, Endoribonuclease toxin MazF; assay: activation of MazEF endoribonuclease cleavage – biochemical, fluorescence, single-stranded RNA substrate, uHTS hits, dose response (AID 588481); type: functional
[7] = biological target: T7, Serine/threonine-protein phosphatase (Candida dubliniensis (strain CD36 / CBS 7987 / NCPF 3949 / NRRLY-17841) (Yeast), UniProt B9W6M3); assay: blockers of CaCl2-induced CDRE-lacZ signaling – S. cerevisiae, luminescence, secondary, dose response (AID 2388); type: functional, cell-based;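 note: yeast reporter cells carrying a calcineurin-responsive lacZ construct stimulated with calcium chloride; luminescent beta-galactosidase reporter signal in whole cells rather than isolated phosphatase activity; potency for inhibition where a drop in reporter signal means calcineurin blockade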
T7 sequence (B9W6M3 whole entry): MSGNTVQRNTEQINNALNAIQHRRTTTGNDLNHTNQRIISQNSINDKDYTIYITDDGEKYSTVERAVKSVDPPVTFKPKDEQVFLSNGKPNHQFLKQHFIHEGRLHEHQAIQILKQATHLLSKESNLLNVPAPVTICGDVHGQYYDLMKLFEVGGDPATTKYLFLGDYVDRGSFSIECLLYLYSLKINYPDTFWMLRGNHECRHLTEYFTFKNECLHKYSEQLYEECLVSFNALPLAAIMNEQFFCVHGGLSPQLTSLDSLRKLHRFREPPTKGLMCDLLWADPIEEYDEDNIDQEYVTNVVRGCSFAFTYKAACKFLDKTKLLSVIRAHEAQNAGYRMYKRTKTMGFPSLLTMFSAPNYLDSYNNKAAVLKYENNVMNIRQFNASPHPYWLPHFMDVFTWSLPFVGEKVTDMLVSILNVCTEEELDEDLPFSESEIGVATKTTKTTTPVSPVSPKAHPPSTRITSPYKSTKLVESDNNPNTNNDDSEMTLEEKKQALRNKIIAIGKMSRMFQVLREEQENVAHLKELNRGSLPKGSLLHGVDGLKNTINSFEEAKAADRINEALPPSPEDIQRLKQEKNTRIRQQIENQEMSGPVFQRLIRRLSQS

[8] = microbe, parasite or virus in culture; type: functional; conditions: Mycobacterium tuberculosis
[9] = biological target: ATP-dependent molecular chaperone HSP82 (Candida albicans (strain WO-1) (Yeast), UniProt C4YTQ8); assay: steroid-induced GRE reporter decrease in yeast – S. cerevisiae, luminescence, Hsp90 inhibitor project, dose response (AID 2400); type: functional, cell-based;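 note: beta-galactosidase luminescence from glucocorticoid response element reporter as proxy for Hsp90 function; inhibitor potency where signal loss means Hsp90 inhibition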
[10] = NIH-3T3 fibroblast cytotoxicity, dose response, cytotoxicity control, cell-based, fluorescence, Alamar Blue, secondary assay (AID 2327); type: functional;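 note: NIH-3T3 mouse fibroblasts cultured with fluconazole at 8 µg/mL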
[11] = fluconazole-exposed Candida albicans growth modulators – fluorescence, retest, confirmation (AID 2467); type: functional, cell-based
Cytochrome P450 2C19 = Cytochrome P450 2C19 (Homo sapiens, UniProt P33261); assay: Cytochrome panel assay with activity outcomes. Panel member name: p450-cyp2c19 Compounds with AC50 equal or less than 10 uM are considered active; type: functional; conditions: read-out: AC50
INS1 = assay: INS-1E survival protection against cytokine death – cell-based, luminescence, retest, dose response (AID 449756); type: functional; conditions: Rattus norvegicus;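 note: cell death triggered by IL-1 beta plus TNF-alpha plus IFN-gamma mixture; protective hits raise ATP signal compared with cytokine alone wells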
Nonstructural protein 1 = Nonstructural protein 1 (Influenza A virus, UniProt Q194T2); type: functional, Influenza A virus (A/California/07/2009(H1N1))
[12] = biological target: FAD-linked sulfhydryl oxidase ALR (Homo sapiens, UniProt P55789); assay: ALR-catalysed DTT oxidation blockers – biochemical, H2O2 detection, luminescence, cherry-pick, dose response (AID 493248)
Genome polyprotein = Genome polyprotein (dengue virus type 2, UniProt P29990); assay: flavivirus cap methylation enzyme inhibition – biochemical, confirmation dose response, primary screen (AID 588689); type: functional
Genome polyprotein, sequence (P29990 2492-3391 limits assumed): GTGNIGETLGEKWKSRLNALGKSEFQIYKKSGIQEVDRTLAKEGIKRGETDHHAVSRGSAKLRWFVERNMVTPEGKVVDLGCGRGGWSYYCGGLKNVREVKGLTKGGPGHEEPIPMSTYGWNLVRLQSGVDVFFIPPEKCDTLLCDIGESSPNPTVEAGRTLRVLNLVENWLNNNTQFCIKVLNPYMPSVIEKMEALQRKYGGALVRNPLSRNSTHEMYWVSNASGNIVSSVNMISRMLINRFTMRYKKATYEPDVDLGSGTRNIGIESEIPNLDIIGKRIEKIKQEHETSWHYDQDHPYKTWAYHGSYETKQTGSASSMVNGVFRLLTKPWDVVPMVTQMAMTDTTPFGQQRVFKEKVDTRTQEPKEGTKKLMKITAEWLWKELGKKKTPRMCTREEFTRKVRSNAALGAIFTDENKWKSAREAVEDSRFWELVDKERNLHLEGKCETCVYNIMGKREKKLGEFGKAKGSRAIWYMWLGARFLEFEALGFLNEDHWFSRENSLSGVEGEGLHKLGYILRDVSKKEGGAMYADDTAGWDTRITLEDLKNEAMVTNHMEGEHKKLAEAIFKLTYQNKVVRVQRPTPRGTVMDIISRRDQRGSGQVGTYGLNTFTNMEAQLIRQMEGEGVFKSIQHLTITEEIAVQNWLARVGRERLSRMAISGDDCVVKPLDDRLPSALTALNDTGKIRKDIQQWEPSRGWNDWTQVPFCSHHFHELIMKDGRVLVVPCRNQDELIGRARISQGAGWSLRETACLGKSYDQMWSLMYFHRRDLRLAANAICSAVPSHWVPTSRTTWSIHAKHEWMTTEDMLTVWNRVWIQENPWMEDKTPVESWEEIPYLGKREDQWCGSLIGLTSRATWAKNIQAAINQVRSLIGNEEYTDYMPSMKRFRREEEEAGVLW

ATP-dependent molecular chaperone HSP82, sequence (C4YTQ8 whole entry): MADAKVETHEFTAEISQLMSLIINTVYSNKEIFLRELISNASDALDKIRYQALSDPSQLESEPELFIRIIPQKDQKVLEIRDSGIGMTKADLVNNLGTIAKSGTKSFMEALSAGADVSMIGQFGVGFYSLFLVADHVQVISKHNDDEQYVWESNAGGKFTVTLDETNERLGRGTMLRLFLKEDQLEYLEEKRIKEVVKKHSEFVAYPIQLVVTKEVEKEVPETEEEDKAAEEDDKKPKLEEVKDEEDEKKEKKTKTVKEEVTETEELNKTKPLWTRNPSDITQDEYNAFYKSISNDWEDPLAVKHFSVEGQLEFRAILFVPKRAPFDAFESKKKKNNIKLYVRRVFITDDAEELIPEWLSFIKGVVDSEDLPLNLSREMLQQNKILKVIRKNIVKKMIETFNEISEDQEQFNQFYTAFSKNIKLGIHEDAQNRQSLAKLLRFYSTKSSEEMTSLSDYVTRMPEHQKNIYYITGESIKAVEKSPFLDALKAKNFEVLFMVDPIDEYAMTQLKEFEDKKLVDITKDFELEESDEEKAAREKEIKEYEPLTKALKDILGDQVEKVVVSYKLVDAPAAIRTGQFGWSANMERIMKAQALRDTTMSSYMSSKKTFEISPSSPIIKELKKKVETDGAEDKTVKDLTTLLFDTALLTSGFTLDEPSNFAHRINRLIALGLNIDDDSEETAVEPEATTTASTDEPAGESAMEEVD
Cytochrome P450 3A4, sequence (P08684 whole entry): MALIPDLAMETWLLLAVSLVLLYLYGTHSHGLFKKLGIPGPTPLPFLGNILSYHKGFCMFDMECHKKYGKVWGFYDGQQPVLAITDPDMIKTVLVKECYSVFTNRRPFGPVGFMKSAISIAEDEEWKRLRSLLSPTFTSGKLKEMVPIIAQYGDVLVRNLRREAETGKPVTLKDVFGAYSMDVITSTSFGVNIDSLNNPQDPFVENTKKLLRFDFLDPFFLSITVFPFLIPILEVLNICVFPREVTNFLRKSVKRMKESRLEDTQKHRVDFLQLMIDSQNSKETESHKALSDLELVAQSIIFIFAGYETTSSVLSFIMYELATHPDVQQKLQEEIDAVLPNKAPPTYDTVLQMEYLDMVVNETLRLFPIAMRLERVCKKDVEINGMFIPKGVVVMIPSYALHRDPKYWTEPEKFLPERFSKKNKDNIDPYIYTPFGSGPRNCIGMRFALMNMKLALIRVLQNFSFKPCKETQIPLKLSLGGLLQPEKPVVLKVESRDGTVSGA
Cytochrome P450 2D6, sequence (P10635 whole entry, the tested form may be a part): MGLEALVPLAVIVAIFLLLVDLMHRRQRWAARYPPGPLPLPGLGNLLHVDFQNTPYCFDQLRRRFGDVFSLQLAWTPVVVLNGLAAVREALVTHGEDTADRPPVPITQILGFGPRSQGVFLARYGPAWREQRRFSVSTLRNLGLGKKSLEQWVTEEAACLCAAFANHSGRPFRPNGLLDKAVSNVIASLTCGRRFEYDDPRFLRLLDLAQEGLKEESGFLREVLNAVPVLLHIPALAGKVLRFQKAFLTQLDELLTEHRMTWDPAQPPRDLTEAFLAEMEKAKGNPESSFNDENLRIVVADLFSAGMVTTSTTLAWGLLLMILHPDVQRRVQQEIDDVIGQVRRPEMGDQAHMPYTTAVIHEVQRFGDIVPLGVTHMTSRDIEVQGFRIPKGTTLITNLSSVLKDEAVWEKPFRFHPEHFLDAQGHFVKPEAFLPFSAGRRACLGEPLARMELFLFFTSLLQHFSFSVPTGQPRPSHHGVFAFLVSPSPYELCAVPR
Cytochrome P450 2C19, sequence (P33261 whole entry): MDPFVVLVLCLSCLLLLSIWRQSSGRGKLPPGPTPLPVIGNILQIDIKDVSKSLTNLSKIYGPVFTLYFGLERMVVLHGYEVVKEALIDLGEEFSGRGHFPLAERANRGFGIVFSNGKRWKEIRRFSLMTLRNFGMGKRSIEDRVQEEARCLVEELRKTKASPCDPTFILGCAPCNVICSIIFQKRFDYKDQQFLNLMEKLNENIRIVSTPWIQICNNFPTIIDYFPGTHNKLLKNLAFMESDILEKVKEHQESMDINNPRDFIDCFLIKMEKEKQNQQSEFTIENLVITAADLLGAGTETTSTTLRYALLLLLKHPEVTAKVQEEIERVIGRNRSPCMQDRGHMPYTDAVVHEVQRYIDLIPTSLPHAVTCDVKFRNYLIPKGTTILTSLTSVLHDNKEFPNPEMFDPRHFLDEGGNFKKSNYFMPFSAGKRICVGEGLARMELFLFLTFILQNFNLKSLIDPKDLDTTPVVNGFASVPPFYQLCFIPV
FAD-linked sulfhydryl oxidase ALR, sequence (P55789 whole entry): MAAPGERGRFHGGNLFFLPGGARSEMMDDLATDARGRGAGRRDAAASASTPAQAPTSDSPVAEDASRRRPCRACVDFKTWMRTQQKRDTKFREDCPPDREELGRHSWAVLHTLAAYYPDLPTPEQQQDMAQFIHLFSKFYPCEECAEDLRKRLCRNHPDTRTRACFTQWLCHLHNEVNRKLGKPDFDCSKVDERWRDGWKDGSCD
Nonstructural protein 1, sequence (Q194T2 whole entry): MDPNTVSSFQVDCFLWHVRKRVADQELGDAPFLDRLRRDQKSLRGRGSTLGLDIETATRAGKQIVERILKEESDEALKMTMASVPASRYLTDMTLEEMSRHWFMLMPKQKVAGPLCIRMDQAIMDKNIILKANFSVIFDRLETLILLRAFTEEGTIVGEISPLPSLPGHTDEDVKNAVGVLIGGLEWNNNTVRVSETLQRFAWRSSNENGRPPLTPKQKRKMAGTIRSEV

Q: Which AC50 (Cytochrome P450 3A4) does the source give for `O=C(c1cc(C(F)(F)F)cc(C(F)(F)F)c1)N1CCC2(CCN(Cc3nccs3)CC2)CC1` here?
A: Its AC50 is “inconclusive”.

Q: What about the AC50 (Cytochrome P450 2D6) of the same molecule?
A: Its AC50 is 10 µM (inconclusive).

Q: For `CCOc1ccc2nc(NC(=O)Nc3cccs3)sc2c1`, which EC50 [1] is on record?
A: The EC50 was > 67.5 µM (inactive).

Q: And the IC50 (Caspase-3)?
A: The IC50 was 29.9 µM (active).

Q: And the IC50 [2]?
A: The IC50 was 19.2 µM (active).

Q: What about the IC50 [3] of the same molecule?
A: Its IC50 is 8.66 µM (active).

Q: What about the IC50 [4] of the same molecule?
A: Its IC50 is 24.1 µM (active).

Q: With `CSC1=N/C(=C\c2ccc(C)s2)C(=O)S1` as the molecule, how does the EC50 [5] read?
A: Its EC50 is 72 µM (inactive).

Q: And the EC50 [6]?
A: Its EC50 is 89.7 µM (inactive).

Q: For `O=[N+]([O-])c1nn(-c2ccc(Cl)cc2)[n+]([O-])c1NCc1cccnc1`, which EC50 [7] is on record?
A: The EC50 was > 180 µM (inactive).

Q: What about the CC50 [8] of the same molecule?
A: Its CC50 is > 40 µM (active).

Q: And the EC50 [9]?
A: Its EC50 is > 150 µM (inactive).

Q: What about the EC50 [10] of the same molecule?
A: Its EC50 is > 160 µM (inactive).

Q: And the EC50 [11]?
A: The EC50 was 1.11 µM (active).

Q: With `O=C(Nc1cccc(F)c1)N1CCC2(CC1)CCN(C(=O)c1ccco1)CC2` as the molecule, how does the AC50 (Cytochrome P450 3A4) read?
A: The AC50 was “inconclusive”.

Q: What about the AC50 (Cytochrome P450 2C19) of the same molecule?
A: Its AC50 is 10 µM (inconclusive).

Q: With `COc1cccc(C2=CC(c3ccc(N(C)C)cc3)n3nnnc3N2)c1` (stereo unspecified) as the molecule, how does the EC50 [5] read?
A: Its EC50 is > 99 µM (inactive).

Q: What about the EC50 [6] of the same molecule?
A: The EC50 was > 99 µM (inactive).

Q: For `Oc1ccc(N=Nc2nccs2)c(O)c1`, which AC50 (INS1) is on record?
A: Its AC50 is 2.78 µM (active).

Q: What about the EC50 [7] of the same molecule?
A: The EC50 was > 180 µM (inactive).

Q: What about the IC50 (Nonstructural protein 1) of the same molecule?
A: The IC50 was 11.4 µM (active).

Q: And the EC50 [9]?
A: The EC50 was 21.8 µM (active).

Q: What about the AC50 [12] of the same molecule?
A: Its AC50 is 4.55 µM (active).

Q: And the EC50 [10]?
A: The EC50 was 16 µM (inconclusive).

Q: What about the EC50 [11] of the same molecule?
A: Its EC50 is 1.19 µM (active).

Q: Which IC50 (Genome polyprotein) does the source give for `C=CCOc1ccc(/C=C2/C(=O)ON=C2C)cc1OCC` here?
A: Its IC50 is > 100 µM (active).
